Reference: the CheMixHub viscosity set
Several values for one entry are separate records, joined by “and”; a condition that tells them apart may be missing. Identical values can stand only once.

Test: xn = mol fraction of the nth substance listed

COCCOCCOC + CCCOC(C)=O
viscosity [mPa·s], 101.3 kPa
Settings | 298.15 K | 308.15 K | 318.15 K
x1 = 0.0296 | 0.567 | 0.499 | 0.447
x1 = 0.076 | 0.586 | 0.515 | 0.46
x1 = 0.0957 | 0.594 | 0.521 | 0.467
x1 = 0.1388 | 0.611 | 0.534 | 0.478
x1 = 0.1878 | 0.633 | 0.551 | 0.492
x1 = 0.2478 | 0.656 | 0.572 | 0.508
x1 = 0.3236 | 0.688 | 0.597 | 0.528
x1 = 0.3893 | 0.716 | 0.619 | 0.544
x1 = 0.4382 | 0.736 | 0.635 | 0.557
x1 = 0.5153 | 0.769 | 0.662 | 0.579
x1 = 0.5945 | 0.805 | 0.691 | 0.603
x1 = 0.6605 | 0.835 | 0.715 | 0.626
x1 = 0.735 | 0.87 | 0.744 | 0.648
x1 = 0.7756 | 0.888 | 0.759 | 0.659
x1 = 0.8324 | 0.916 | 0.779 | 0.676
x1 = 0.8696 | 0.933 | 0.793 | 0.687
x1 = 0.9082 | 0.954 | 0.808 | 0.699
x1 = 0.9425 | 0.97 | 0.822 | 0.71
x1 = 0.9777 | 0.988 | 0.835 | 0.722
x2 = 0.0101 | – | – | 0.725
x2 = 0.0103 | 0.991 | 0.84 | –

CCCCCCn1cc[n+](C)c1.F[B-](F)(F)F + CC(C)CO
101 kPa
Settings | viscosity [mPa·s]
293.15 K, x1 = 0.5606 | 49.75
303.15 K, x1 = 0.8327 | 84.55
308.15 K, x1 = 0.1004 | 4.975

COCCOCCOC + ClC(Cl)Cl
298.15 K, 101.33 kPa
Settings | viscosity [mPa·s]
x1 = 0.0986 | 0.727
x1 = 0.2039 | 0.946
x1 = 0.2993 | 1.028
x1 = 0.3966 | 1.082
x1 = 0.4825 | 1.094
x1 = 0.5247 | 1.093
x1 = 0.5864 | 1.08
x1 = 0.6365 | 1.072
x1 = 0.7006 | 1.054
x1 = 0.7976 | 1.033
x1 = 0.8985 | 1.011
x1 = 0.9325 | 1.008

ClC(Cl)C(Cl)Cl + CCCC(=O)OCC
viscosity [mPa·s], 101.3 kPa
Settings | 308.15 K | 318.15 K
x2 = 0.0477 | 1.326 | 1.209
x2 = 0.1018 | 1.243 | 1.135
x2 = 0.2004 | 1.11 | 1.019
x2 = 0.2603 | 1.04 | 0.957
x2 = 0.3965 | 0.906 | 0.837
x2 = 0.4979 | 0.824 | 0.764
x2 = 0.6073 | 0.753 | 0.699
x2 = 0.6955 | 0.701 | 0.652
x2 = 0.8023 | 0.649 | 0.605
x2 = 0.9007 | 0.61 | 0.569
x2 = 0.9705 | 0.585 | 0.547

COC(=O)OC + CCC(C)O
101.3 kPa
Settings | viscosity [mPa·s]
293.15 K, x1 = 0.0505 | 2.908
293.15 K, x1 = 0.0986 | 2.37
293.15 K, x1 = 0.2131 | 1.522
293.15 K, x1 = 0.2801 | 1.235
293.15 K, x1 = 0.4092 | 0.94
293.15 K, x1 = 0.511 | 0.83
293.15 K, x1 = 0.6172 | 0.753
293.15 K, x1 = 0.7072 | 0.696
293.15 K, x1 = 0.7997 | 0.637
293.15 K, x1 = 0.8229 | 0.621
293.15 K, x1 = 0.9518 | 0.595
298.15 K, x1 = 0.0572 | 2.399
298.15 K, x1 = 0.0994 | 1.991
298.15 K, x1 = 0.1958 | 1.354
298.15 K, x1 = 0.3029 | 0.991
298.15 K, x1 = 0.3339 | 0.926
298.15 K, x1 = 0.5075 | 0.756
298.15 K, x1 = 0.6051 | 0.707
298.15 K, x1 = 0.7037 | 0.641
298.15 K, x1 = 0.808 | 0.569
298.15 K, x1 = 0.9046 | 0.531
298.15 K, x1 = 0.9523 | 0.542
303.15 K, x1 = 0.0573 | 1.931
303.15 K, x1 = 0.0842 | 1.728
303.15 K, x1 = 0.1936 | 1.195
303.15 K, x1 = 0.2981 | 0.943
303.15 K, x1 = 0.3926 | 0.809
303.15 K, x1 = 0.4938 | 0.709
303.15 K, x1 = 0.59 | 0.632
303.15 K, x1 = 0.6561 | 0.594
303.15 K, x1 = 0.7945 | 0.549
303.15 K, x1 = 0.8916 | 0.547
303.15 K, x1 = 0.9483 | 0.546
313.15 K, x1 = 0.0498 | 1.512
313.15 K, x1 = 0.1005 | 1.289
313.15 K, x1 = 0.2009 | 0.975
313.15 K, x1 = 0.2952 | 0.795
313.15 K, x1 = 0.4047 | 0.669
313.15 K, x1 = 0.5109 | 0.6
313.15 K, x1 = 0.6072 | 0.561
313.15 K, x1 = 0.6982 | 0.529
313.15 K, x1 = 0.7992 | 0.502
313.15 K, x1 = 0.8977 | 0.486
313.15 K, x1 = 0.9583 | 0.486

Oc1ccccc1 + C[N+](C)(C)CCO.[Cl-]
viscosity
Settings | 101 kPa | 101.33 kPa
293.15 K, x2 = 0.2 | – | 61.78 mPa·s
293.15 K, x2 = 0.25 | – | 72.04 mPa·s
293.15 K, x2 = 0.333 | 137.7 mPa·s | –
298.15 K, x1 = 0.7 | – | 122.5 mPa·s
298.15 K, x1 = 0.8 | – | 56.11 mPa·s and 39.28 mPa·s and 30.65 mPa·s
298.15 K, x1 = 0.9 | – | 26.18 mPa·s
298.15 K, x2 = 0.333 | 99.81 mPa·s | –
303.15 K, x2 = 0.2 | 36.55 mPa·s | 37.73 mPa·s
303.15 K, x2 = 0.25 | 41.2 mPa·s | 43.1 mPa·s
303.15 K, x2 = 0.333 | 75.03 mPa·s and 76.44 mPa·s | –
308.15 K, x2 = 0.333 | 57.85 mPa·s | –
313.15 K, x2 = 0.2 | 23.57 mPa·s | 24.63 mPa·s
313.15 K, x2 = 0.25 | 26.84 mPa·s | 27.84 mPa·s
313.15 K, x2 = 0.333 | 46.41 mPa·s and 45.29 mPa·s | –
318.15 K, x2 = 0.333 | 35.93 mPa·s | –
323.15 K, x2 = 0.2 | 16.21 mPa·s | 17.07 mPa·s
323.15 K, x2 = 0.25 | 18.62 mPa·s | 19.11 mPa·s
323.15 K, x2 = 0.333 | 30.68 mPa·s and 28.71 mPa·s | –

COC(=O)OC + C1CCCCC1
viscosity [mPa·s], 101.33 kPa
Settings | x1 = 0.101 | x1 = 0.1993 | x1 = 0.3026 | x1 = 0.3999 | x1 = 0.5 | x1 = 0.5996 | x1 = 0.7039 | x1 = 0.8005 | x1 = 0.9028 | x1 = 0.9031
298.15 K | 0.686 | 0.616 | – | 0.535 | 0.52 | 0.507 | 0.499 | 0.502 | 0.515 | –
303.15 K | 0.636 | 0.573 | 0.533 | 0.5 | 0.485 | 0.475 | 0.47 | 0.472 | 0.491 | –
308.15 K | 0.59 | 0.535 | 0.498 | 0.463 | 0.455 | 0.445 | 0.442 | 0.444 | – | 0.457

Oc1ccccc1 + CC(C)=O
viscosity [mPa·s], 101 kPa
Settings | 293.2 K | 302.95 K | 313.25 K | 322.95 K
x1 = 0.0613 | – | 0.36 | 0.328 | 0.299
x1 = 0.0926 | 0.429 | – | – | –
x1 = 0.1303 | – | 0.441 | 0.399 | 0.36
x1 = 0.1837 | 0.56 | – | – | –
x1 = 0.1912 | – | 0.521 | 0.47 | 0.422
x1 = 0.2695 | – | 0.67 | 0.59 | 0.53
x1 = 0.2749 | 0.755 | – | – | –
x1 = 0.3325 | – | 0.808 | 0.711 | 0.628
x1 = 0.3763 | 1.055 | – | – | –
x1 = 0.4181 | – | 1.058 | 0.904 | 0.794
x1 = 0.458 | 1.379 | – | – | –
x1 = 0.4832 | – | 1.319 | 1.101 | 0.95
x1 = 0.5364 | 1.853 | – | – | –
x1 = 0.5583 | – | 1.658 | 1.363 | 1.15
x1 = 0.6341 | 2.75 | – | – | –
x1 = 0.6402 | – | 2.18 | 1.741 | 1.425
x1 = 0.6982 | 3.59 | – | – | –
x1 = 0.7215 | – | 2.91 | 2.23 | 1.785
x1 = 0.7829 | 4.97 | – | – | –
x1 = 0.8187 | – | 3.915 | 2.875 | 2.245
x1 = 0.8885 | – | 4.905 | 3.465 | 2.615
x1 = 0.8891 | 7.3 | – | – | –
